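Values below derive from 48-hour exposures of cells grown in 96-well plates, with endpoints linearly interpolated between the two concentrations bracketing the appropriate inhibition level. Definition used: TGI = concentration required for complete inhibition of growth.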
Experiments:
Assay in all cases: DTP human tumour cell line panel, 48 h
LOX IMVI melanoma = system: LOX IMVI melanoma
MDA-MB-231 breast = system: MDA-MB-231 breast
HCT-15 colon = system: HCT-15 colon
SW-620 colon = system: SW-620 colon
786-0 renal = system: 786-0 renal
SF-539 CNS = system: SF-539 CNS
SF-268 CNS = system: SF-268 CNS
RPMI-8226 leukemia = system: RPMI-8226 leukemia
NCI/ADR-RES ovarian = system: NCI/ADR-RES ovarian
M14 melanoma = system: M14 melanoma
PC-3 prostate = system: PC-3 prostate
UACC-257 melanoma = system: UACC-257 melanoma
OVCAR-4 ovarian = system: OVCAR-4 ovarian

SMILES	TGI (LOX IMVI melanoma) [µM]	TGI (MDA-MB-231 breast) [µM]	TGI (HCT-15 colon) [µM]	TGI (SW-620 colon) [µM]	TGI (786-0 renal) [µM]	TGI (SF-539 CNS) [µM]	TGI (SF-268 CNS) [µM]	TGI (RPMI-8226 leukemia) [µM]	TGI (NCI/ADR-RES ovarian) [µM]	TGI (M14 melanoma) [µM]	TGI (PC-3 prostate) [µM]	TGI (UACC-257 melanoma) [µM]	TGI (OVCAR-4 ovarian) [µM]
CN1CC2=C(NC(=S)NC2c2ccc(Cl)cc2)/C(=C/c2ccc(Cl)cc2)C1 (stereo unspecified)	35.8	39.8	37.5	30.3	52.3	62.9	50.4	92.4	43.6	33.6	23.1	43.2	
NC(=O)c1csc(CCCCCCc2nc(C(N)=O)cs2)n1	> 100		> 100	> 60.7	> 73.7	> 100	> 100	> 71.4		> 100		> 100	> 100
O=C(/C=C/c1c(O)ccc2ccccc12)c1cccc2ccccc12	> 100		> 100	> 51.6	> 100	> 100	> 100	> 78		> 100		> 100	
CCCC(=O)N/S(=N/S(=O)(=O)c1ccc(Cl)cc1)C(Cl)(Cl)Cl (stereo unspecified)		> 100	> 100	> 100	> 100	> 100	> 100		> 100	> 100	> 100		
Cn1c(=O)c2c(nc(C[N+]3([O-])CCOCC3)n2C)n(C)c1=O	> 100		> 100	> 100	> 100	> 100	> 100	> 100		> 100		> 100	
COc1ccc(C2CCC(Cl)(OC)CC2C=O)cc1 (stereo unspecified)	43.7		> 100	> 100	> 100	> 100	97.3	> 100		> 100		> 100	> 100
CCCCSC1=N/C(=C\c2ccco2)C(=O)N1		> 100	> 100	> 100	> 100		> 100	> 100	> 100	> 100	> 100	> 100	> 100
COc1cc2c(cc1OC)C1C(O)C(OC)C=C3CC[N+](C)(C2)C31 (stereo unspecified)		> 100	> 100	> 100	> 100	> 100	> 100	> 100	> 100	> 100	> 100	> 100	> 100
CCOC(=O)C1=C(O)c2ccccc2C(=O)C1=O	> 100		> 100	> 100	> 100	> 100	> 100	> 100		> 100		> 100	> 100
CC(=O)OC1OC2C(NC(=O)OC(C)(C)C)C1CC2(OCc1ccccc1)OCc1ccccc1 (stereo unspecified)			> 100	> 100	56.8	33.8	> 100	43.3		50.6		37.9	
c1ccc2[nH]c3[nH]c4[nH]c5ccccc5[nH]c4[nH]c3[nH]c2c1	> 100	> 100	> 100	> 100	> 100	> 100	> 100	> 100	> 100	> 100	> 100	> 100	
O=C(O)c1cc(-c2ccccc2O)nc2ccccc12			> 100	> 100	> 100	> 100	> 100	> 100		> 100		> 100	> 100
Cc1cc(S(=O)(=O)Nc2nc(N)nc(N3CCOCC3)n2)c(SCC(=O)O)cc1Cl	> 10		> 10	> 10	> 10	> 10	> 10	> 10	> 10	> 10	> 10	> 10	> 10
O=c1oc2cc(O)ccc2c(O)c1C(c1ccccn1)c1c(O)c2ccc(O)cc2oc1=O	> 100	> 100	> 100	> 100	> 100	> 100	> 100	> 100	> 100	> 100	> 100	> 100	
CN(C)c1ncnc2c1ncn2C1C=CC(COS(N)(=O)=O)C1 (stereo unspecified)	> 100		> 100	> 100	> 100	> 100	> 100	> 100	> 100	> 100	> 100	> 100	> 100
COc1cccc(/C(C=O)=C(\Cl)c2ccc(OC)c(OC)c2)c1	28.7		25.6	29.6	30.7	30.4	25.3	48.8		31.6		29.3	39.1
O=c1n(-c2ccccc2)c(=O)n2n1C1CCC2CC1	> 100	> 100	> 100	> 100	> 100	> 100	> 100	> 100	> 100	> 100	> 100	> 100	
CCOc1ccc(N/C(=C(/C(Cl)=C(/Cl)NCCO)[N+](=O)[O-])n2nnc3ccccc32)cc1		63.8	43.3	39.9	81.7	93	41	> 100	64	> 100	86.4	> 100	> 100
Cn1cc2c(=O)n3ncn(-c4ccc(Br)cc4)c3nc2n1		> 100	> 100	> 100	> 100	> 100	> 100	> 100	> 100	> 100	> 100	> 100	> 100
CCOC(=O)c1nnsc1NC(=O)Nc1ccc(Cl)cc1		52.7	> 100	> 100	42.4		> 100	> 100	72.5	> 100	> 100	> 100	51.2

SMILES	TGI (LOX IMVI melanoma) [µM]	TGI (MDA-MB-231 breast) [µM]	TGI (HCT-15 colon) [µM]	TGI (SW-620 colon) [µM]	TGI (786-0 renal) [µM]	TGI (SF-539 CNS) [µM]	TGI (SF-268 CNS) [µM]	TGI (RPMI-8226 leukemia) [µM]	TGI (NCI/ADR-RES ovarian) [µM]	TGI (M14 melanoma) [µM]	TGI (PC-3 prostate) [µM]	TGI (UACC-257 melanoma) [µM]	TGI (OVCAR-4 ovarian) [µM]
O=C1C(Cl)C(c2ccc(Cl)cc2)N1n1cnc2ccccc2c1=O (stereo unspecified)	> 100		> 100	> 100	> 100		> 100	> 100		> 100		> 100	> 100
CC1(C)[C@@H]2C[C@H]1C(Cc1ccc(C[C@H]3c4cc(-c5ccccn5)ncc4[C@H]4C[C@@H]3C4(C)C)cc1)c1cc(-c3ccccn3)ncc12 (stereo partly specified)	7.55	> 100	> 100	> 100	14.7	7.13	28.6	70	22.2	> 100	22.8	> 100	
CO/C(=N\N=C\c1ccc(OC)cc1OC)c1ccncc1	> 10		> 10	> 10	> 10	> 10	> 10	> 10	> 10		> 10		
CC(=O)c1c(O)ccc2c1CC(CC=O)O2 (stereo unspecified)	60.9		> 100	> 100	> 100	> 100	> 100	> 100		> 100		> 100	> 100
CC1=CC2(O)OC3(CC2=C(C)C)C(C)CCC13 (stereo unspecified)	> 100	> 100	> 100	> 100	> 100	> 100	> 100	> 100	> 100	> 100		> 100	> 100
NC(=O)C12C3C4C1C1C2C3C41C(N)=O (stereo unspecified)	> 100		> 100	> 100	> 100	> 100	> 100	> 100		> 100		> 100	> 100
CCOC(OCC)c1ccc(/C=C/c2cc(OC)c(OC)c(OC)c2)cc1	25		30.7	56.3	60.1	29.8	71.8	63		31.9		51.2	68.1
CC(=O)O[C@H]1C(=O)[C@@]2(C)[C@H]([C@H](OC(=O)c3ccc([N+](=O)[O-])cc3)[C@]3(O)C[C@H](OC(=O)[C@H](O)[C@@H](NC(=O)c4ccccc4)c4ccccc4)C(C)=C1C3(C)C)[C@]1(OC(C)=O)CO[C@@H]1C[C@@H]2O		> 25	> 25	> 25	> 25	> 25	> 25	> 25	> 25	> 25	> 25	> 25	> 25
COc1ccc(/C=C2\N=C(c3ccccc3)N(Nc3nnc(NN4C(=O)/C(=C/c5ccc(OC)cc5)N=C4c4ccccc4)c4ccccc34)C2=O)cc1	43		> 100	> 100	> 100	> 100	> 100	> 100		> 100		> 100	> 100
COC1=CC(C2c3cc4c(cc3[C@@H](Nc3ccc([N+](=O)[O-])cc3)C3COC(=O)[C@H]23)OCO4)=CC(=O)C1=O (stereo partly specified)	13.2		34.1	> 66.4	4.86	6.05	12.6	> 100		> 37.7		> 100	> 100
COC(=O)[C@H]1C=C[C@@H](C)n2c(=O)c3ccccc3c(=O)n21	> 100		> 100	> 100	> 100	> 100	> 100	> 100		> 100		> 100	> 100
CC1=Nc2c([nH]c(=S)[nH]c2=O)NC(c2ccc(Cl)c(Cl)c2)C1 (stereo unspecified)	40.3		> 60.1	> 57.7	32.5	46.5	> 93.1	> 100		31.3		47	57.9
NC1=NC2(O)c3ccccc3C(=O)C2(O)N1 (stereo unspecified)	> 100		> 100	> 100	> 100	> 100	> 100	> 100		> 100		> 100	> 100
COc1ccc(-c2onc(-c3c(C)cc(C)cc3C)c2C2=NCCCN2)cc1	> 100		> 100	> 100	> 100	53.7	> 100	86.5		40.8		70.1	> 100
CCOC(=O)c1cc(C2CCN(CC(C)CC)C2=S)c(C(=O)/C=C(/C)N)[nH]1 (stereo unspecified)	> 50	> 50	> 50	> 50	> 50	> 50	> 50	> 50	> 50	> 50	> 50	> 50	
NC12CC3CC(C1)CC(Cl)(C3)C2	> 100			> 100	> 100	> 100		> 100		> 100		> 100	
COc1ccc(CNc2nc(NCc3ccc(OC)cc3)nc(NC(C)C)n2)cc1	30.9		> 100	> 100	32.9	27.3	50	5.3	18.9	16.7	23.9	39.8	> 100
CC(NC(=O)/C(C#N)=C/c1ccc2[nH]ccc2c1)c1ccccc1 (stereo unspecified)	31.8		27.6	33	31.8	34.9	42.6	> 73.1	> 100	37.2	39.3	38.7	49.5
CN(C)CCCSc1c2ccccc2nc2cc(NCC(=O)Nc3ccccc3-c3ccccc3NC(=O)CNc3ccc4c(SCCCN(C)C)c5ccccc5nc4c3)ccc12	> 100		> 100	> 100	> 100	> 100	> 100	> 100		> 100		> 100	> 100
